Experimental data as given in paper PMC3130825 (Journal of medicinal chemistry, 2010).
“And” between values parts separate entries of the source, which are not always exact repeats. Equal values may be shown once.

Tests used:
[1] = system: nicotine-induced antinociception (tail-flick); assay: Block of nicotine-induced antinociception, tail-flick test; format: in vivo, mice; conditions: for ED50: Mus musculus, read-out: AD50 Tail-flick; for potency relative to 2 in the tail-flick assay: mouse, in vivo
hNET = hNET (Homo sapiens, UniProt P23975); assay: [3H]norepinephrine uptake inhibition in HEK293 cells; format: cell-based; conditions: for potency relative to 2 as NE uptake inhibitor: better than 2
hSERT = hSERT (Homo sapiens, UniProt P31645); format: cell-based
[2] = system: nicotine-induced antinociception (hot-plate); assay: Block of nicotine-induced antinociception, hot-plate test; parameters: species or system mice; conditions: mouse, in vivo
[3] = system: nicotine-induced hypothermia; assay: Block of nicotine-induced hypothermia; parameters: species or system mice; conditions: mouse, in vivo
nicotine-induced CPP = assay: Block of development of nicotine conditioned place preference; parameters: species or system mice; conditions: mouse, in vivo
[4] = system: CB-1 cannabinoid receptor; conditions: cited from earlier work
locomotor activity = conditions: cited from earlier work
[5] = cited from earlier work
α3β4*-nAChR = α3β4*-nAChR (Homo sapiens, UniProt P30926+P32297); assay: 86Rb+ efflux assay, SH-SY5Y cells; format: cell-based
[6] = system: nicotine-induced locomotor effect; assay: Block of nicotine effect on locomotor activity; parameters: species or system mice; conditions: mouse, in vivo

hNET, sequence (P23975 whole entry): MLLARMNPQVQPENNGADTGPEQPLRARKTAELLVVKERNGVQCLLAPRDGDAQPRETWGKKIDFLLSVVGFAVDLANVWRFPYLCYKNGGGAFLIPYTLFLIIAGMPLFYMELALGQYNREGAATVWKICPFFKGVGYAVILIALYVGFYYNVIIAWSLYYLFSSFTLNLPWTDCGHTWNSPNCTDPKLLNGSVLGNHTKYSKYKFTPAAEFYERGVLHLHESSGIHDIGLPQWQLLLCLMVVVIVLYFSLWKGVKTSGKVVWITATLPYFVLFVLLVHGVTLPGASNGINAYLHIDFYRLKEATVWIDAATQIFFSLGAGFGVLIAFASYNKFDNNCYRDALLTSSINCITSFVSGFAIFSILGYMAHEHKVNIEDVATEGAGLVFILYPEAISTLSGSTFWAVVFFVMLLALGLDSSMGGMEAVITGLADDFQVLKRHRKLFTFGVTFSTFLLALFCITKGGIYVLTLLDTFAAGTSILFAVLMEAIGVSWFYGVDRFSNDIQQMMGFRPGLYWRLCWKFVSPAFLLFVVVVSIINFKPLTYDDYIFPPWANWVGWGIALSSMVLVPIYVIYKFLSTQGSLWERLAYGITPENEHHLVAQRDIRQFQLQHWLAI
α3β4*-nAChR, sequence (P32297 32-505): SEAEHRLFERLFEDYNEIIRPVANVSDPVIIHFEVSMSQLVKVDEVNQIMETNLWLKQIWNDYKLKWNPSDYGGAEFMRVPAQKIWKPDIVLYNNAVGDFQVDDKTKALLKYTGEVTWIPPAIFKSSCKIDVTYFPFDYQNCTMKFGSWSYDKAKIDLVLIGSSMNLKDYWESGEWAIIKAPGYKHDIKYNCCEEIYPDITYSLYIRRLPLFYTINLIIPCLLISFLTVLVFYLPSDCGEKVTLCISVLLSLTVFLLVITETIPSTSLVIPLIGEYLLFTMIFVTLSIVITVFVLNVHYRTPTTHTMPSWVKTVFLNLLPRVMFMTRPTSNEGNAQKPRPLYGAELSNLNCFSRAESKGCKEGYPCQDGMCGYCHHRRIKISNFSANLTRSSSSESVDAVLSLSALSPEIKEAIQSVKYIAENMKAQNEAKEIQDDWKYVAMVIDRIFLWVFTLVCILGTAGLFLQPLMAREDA
α3β4*-nAChR, sequence (P30926 22-498): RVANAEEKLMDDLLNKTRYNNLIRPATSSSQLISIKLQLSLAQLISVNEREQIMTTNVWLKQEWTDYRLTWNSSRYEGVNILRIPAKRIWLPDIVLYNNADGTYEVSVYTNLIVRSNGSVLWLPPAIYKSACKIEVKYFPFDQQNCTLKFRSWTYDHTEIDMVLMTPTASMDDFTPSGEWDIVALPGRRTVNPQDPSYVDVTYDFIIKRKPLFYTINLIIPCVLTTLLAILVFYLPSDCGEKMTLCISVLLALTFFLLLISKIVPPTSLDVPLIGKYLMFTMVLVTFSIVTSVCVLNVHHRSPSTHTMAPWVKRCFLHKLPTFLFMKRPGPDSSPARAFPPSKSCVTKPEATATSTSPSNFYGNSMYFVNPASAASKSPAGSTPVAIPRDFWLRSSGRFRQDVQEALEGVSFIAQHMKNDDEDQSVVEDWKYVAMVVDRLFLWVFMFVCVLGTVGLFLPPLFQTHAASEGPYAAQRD
hSERT, sequence (P31645 whole entry): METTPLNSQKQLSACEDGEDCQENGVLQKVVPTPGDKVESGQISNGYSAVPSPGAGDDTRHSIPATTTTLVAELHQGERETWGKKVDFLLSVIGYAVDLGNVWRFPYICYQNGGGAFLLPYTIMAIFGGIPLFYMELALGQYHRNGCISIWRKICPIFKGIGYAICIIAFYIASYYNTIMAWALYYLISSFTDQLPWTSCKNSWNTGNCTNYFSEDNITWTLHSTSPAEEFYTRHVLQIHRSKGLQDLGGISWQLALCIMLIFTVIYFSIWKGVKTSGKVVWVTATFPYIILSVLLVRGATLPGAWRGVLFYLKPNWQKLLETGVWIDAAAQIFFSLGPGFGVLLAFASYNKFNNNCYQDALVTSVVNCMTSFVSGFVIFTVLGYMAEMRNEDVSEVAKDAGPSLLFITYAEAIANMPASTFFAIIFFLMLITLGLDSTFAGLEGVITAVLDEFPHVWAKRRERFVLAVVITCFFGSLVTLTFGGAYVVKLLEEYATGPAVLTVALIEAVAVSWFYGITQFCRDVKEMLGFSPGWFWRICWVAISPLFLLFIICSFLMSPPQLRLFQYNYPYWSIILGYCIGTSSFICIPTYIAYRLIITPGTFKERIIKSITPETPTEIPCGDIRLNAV

With `CC(NC(C)(C)C)C(=O)c1cccc(Cl)c1` (centres unmarked) [Compound 2, bupropion, reference compound] the ED50 [1] was 1.2 mg/kg.

`Cc1ccc([C@H]2C[C@@H]3CC[C@H]([C@H]2C(=O)OC(C)C)N3C)cc1` [Compound 4a, 3β-(4-Methylphenyl)tropane-2β-carboxylic acid isopropyl ester] gave an ED50 [1] of 0.015 mg/kg.

`Cc1ccc([C@H]2C[C@@H]3CC[C@H]([C@H]2C(=O)OC2CCC2)N3C)cc1` [Compound 4b] showed an ED50 [1] of 0.28 mg/kg.

With `CCc1cc([C@H]2[C@@H](c3ccc(C)cc3)C[C@@H]3CC[C@H]2N3C)on1` [Compound 4c, 3β-(4-methylphenyl)-2β-(3′-ethylisoxazol-5′-yl)tropane] the “potency relative to 2 as NE uptake inhibitor” value (hNET) was ~ 170 fold, the “potency relative to 2 as 5HT uptake inhibitor” value (hSERT) was “no less than 5 fold” and the ED50 [1] was 0.008 mg/kg. For the same compound, the “potency relative to 2 in the tail-flick assay” value [1] was 150 fold, the “potency relative to 2 in the hot-plate assay” value [2] was 9 fold and the “potency relative to 2 in the hypothermia (body temperature) test” value [3] was “marginally more potent”.

For `Cc1ccc([C@H]2C[C@@H]3CC[C@H]([C@H]2c2cc(-c4ccc(Cl)cc4)no2)N3C)cc1` [Compound 4d], the ED50 [1] is given as greater than 20 mg/kg, the “potency relative to 2 in the CPP assay” value (nicotine-induced CPP) is given as 27 fold and the “modulation of the CB-1 cannabinoid receptor” value [4] is given as “positive allosteric modulator”. For the same compound, the “locomotor activity in rats” value (locomotor activity) was “did not show locomotor activity” and the “brain levels in in vivo binding studies” value [5] was “appreciable brain levels were achieved”.

With `COc1ccc(-c2cc([C@H]3[C@@H](c4ccc(Cl)cc4)C[C@@H]4CC[C@H]3N4C)on2)cc1` [Compound 4e] the “preference for functional inhibition of α3β4*- over α4β4-nAChR” value (α3β4*-nAChR) was greater than 56 fold and the ED50 [1] was 0.018 mg/kg.

In the case of `COC(=O)[C@H]1[C@@H](c2ccc(Cl)c(C)c2)C[C@@H]2CC[C@H]1N2C` [Compound 4g, 3β-(4-chlorophenyl-3-methyl)tropane-2β-carboxylic acid methyl ester], the “potency relative to 2 as NE uptake inhibitor” value (hNET) is reported as ~ 2000 fold, the ED50 [1] is reported as 0.21 mg/kg and the “potency relative to 2 in the tail-flick assay” value [1] is reported as 6 fold. For the same compound, the “potency relative to 2 in the hot-plate assay” value [2] was 40 fold, the “potency relative to 2 in the locomotor test” value [6] was 44 fold and the “potency relative to 2 in the hypothermia (body temperature) test” value [3] was 65 fold.

Work on `COC(=O)[C@H]1[C@@H](c2ccc(Cl)c(C)c2)C[C@@H]2CC[C@H]1N2` [Compound 4h, 3β-(4-chloro-3-methylphenyl)nortropane-2β-carboxylic acid methyl ester] yielded an ED50 [1] of 0.003 mg/kg.

In the case of `Cc1cc([C@H]2[C@@H](c3ccc(Cl)c(C)c3)C[C@@H]3CC[C@H]2N3C)on1` [Compound 4i, 3β-(4-chloro-3-methylphenyl)-2β-(3′-methylisoxazol-5′-yl)tropane], the “preference for functional inhibition of α3β4*- over α4β2-nAChR” value (α3β4*-nAChR) is reported as 11 fold and 10–13 fold and the ED50 [1] is reported as 0.009 mg/kg.

In the case of `Cc1cc([C@H]2C[C@@H]3CC[C@H]([C@H]2c2cc(-c4ccccc4)no2)N3C)ccc1Cl` [Compound 4j], the “preference for NE over DA uptake inhibition” value (hNET) is reported as “comparable”, the “preference for functional inhibition of α3β4*- over α4β2-nAChR” value (α3β4*-nAChR) is reported as 10–13 fold and the ED50 [1] is reported as 2.5 mg/kg.

Work on `COC(=O)[C@@H]1[C@H]2CC[C@@H](C[C@H]1c1ccc(Cl)c(C)c1)N2C` [Compound 4k, 3α-(4-Chloro-3-methylphenyl)tropane-2β-carboxylic acid Methyl Ester] yielded an ED50 [1] of 0.026 mg/kg.
